ChEMBL document CHEMBL1148515, “Enantiomerically pure 1,4-benzodiazepine-2,5-diones as Hdm2 antagonists” (Bioorg Med Chem Lett, 2006)

Key:
Type in all cases: functional
JAR [1] = assay: Increase in caspase3/7 production in human JAR cells at 25 uM relative to control
JAR [2] = assay: Increase in caspase3/7 production in human JAR cells at 10 uM relative to control
JAR [3] = assay: Increase in caspase3/7 production in human JAR cells at 50 uM relative to control

Structure (SMILES) | Activity (JAR [1]) | Activity (JAR [2]) | Activity (JAR [3])
C[C@H](c1ccc(Cl)cc1)N1C(=O)c2cc(I)ccc2N(CCCCC(=O)O)C(=O)[C@@H]1c1ccc(Cl)cc1 | 1.37 | 0.97 | 1.97
C[C@H](c1ccc(Cl)cc1N)N1C(=O)c2cc(I)ccc2N(CCN2CCOCC2)C(=O)[C@@H]1c1ccc(Cl)cc1 | 2.87 | 0.9 | 2.89
COCCOCCN1C(=O)[C@H](c2ccc(Cl)cc2)N([C@H](C)c2ccc(Cl)cc2N)C(=O)c2cc(I)ccc21 | 2.84 | 1.29 | 2.92
